Where two headings read alike, the source gives them in different places.

For orientation: Cmax means the peak of the concentration-time curve.

The target in one data set is T1, PXR (Homo sapiens, UniProt O75469).
T1 construct: expressed in transfected cells; host or cells: DPX2 cells
T1 sequence (O75469 1-434): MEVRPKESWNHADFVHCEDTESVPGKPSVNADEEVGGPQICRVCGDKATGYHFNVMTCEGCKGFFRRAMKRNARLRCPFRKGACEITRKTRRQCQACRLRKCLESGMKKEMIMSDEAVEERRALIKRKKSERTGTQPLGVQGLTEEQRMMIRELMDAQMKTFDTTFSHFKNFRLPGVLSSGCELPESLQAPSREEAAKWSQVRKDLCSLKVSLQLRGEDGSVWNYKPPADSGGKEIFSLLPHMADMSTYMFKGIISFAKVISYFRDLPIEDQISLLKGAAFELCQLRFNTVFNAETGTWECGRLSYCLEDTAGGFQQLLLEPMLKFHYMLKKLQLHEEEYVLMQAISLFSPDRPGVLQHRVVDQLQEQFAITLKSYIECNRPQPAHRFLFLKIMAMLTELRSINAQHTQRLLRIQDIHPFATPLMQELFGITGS
Kind of data set: PXR (Cyp 3A4) activation assay in DPX2 cells. It is filed as cell-based. Conditions: compounds tested at 10, 1 and 0.1 μM, read-out: PXR activation (fold induction compared to Rifampicin). Here is the method:
CYP3A4 metabolism was evaluated by using P450-Glo™ CYP3A4 Assay with Luciferin-IPA as the substrate of CYP3A4 and represented as RLU (Relative Luminescence Units). PXR activation was evaluated by using a luciferase detection reagent, ONE-Glo™ and represented as RLU. The luminescence light intensity was directly proportional to the extent of PXR activation and accompanying gene transcription in the DPX2 cells. Compounds were tested at 10, 1, and 0.1 μM in the assay. Fold of induction=(RLU/RFU of compound treated sample)/(RLU/RFU of vehicle treated sample), RFU was the signal of cell viability. RLU was the signal of CYP3A metabolism and PXR activation. 0.1% DMSO was used as vehicle. Cell viability was detected by using CellTiter-Fluor™ and represented as RFU (Relative Fluorescence Units).
Activation potency was defined as negative, weak, moderate and strong. Negative, weak, moderate and strong activators are those that give <15%, <40%, <69% and >70%, respectively, of the response produced by 10 μM RIF at 10 μM.

Data set [1] is described as follows: Mouse pharmacokinetic (PK) studies, snapshot format. The format is in vivo. Conditions: plasma, po, 20 mg/kg; for AUC(0-t): read-out: AUC0-24 h. On the procedure: Compounds with suitable in vitro ADME properties were progressed to in vivo PK studies. A snapshot format in mice was used to quickly assess the potential for lead candidates to be orally bioavailable. The snapshot format involved a single dose (typically 20 mg/kg) given orally in a standard vehicle (5% PEG/DMSO in water for example). Compounds were infused directly into MS analysis to determine unique MRM (multiple reaction monitoring) signal that is concentration dependent in either ESI positive or negative modes. HPLC analysis using various solvent gradients was performed from organic and aqueous solution to ensure good peak shape of desired Q1/Q2 masses. Formulations included 45% Cyclodextrin in water (as is used clinically for Itraconazole). Other formulations that may used are solutol, Eudragit, MC/Tween, etc. Standard curves were generated using plasma spiked with compound at various concentrations (10 ng/mL to 2000 ng/mL) to determine linear range of Q1/Q2 mass signal to compound concentration using female mouse heparinized plasma. Mice were dosed orally with compound, plasma samples collected by retro-orbital bleeds. Five time points were collected (30 min, 1 h, 4 h, 8 h, 24 h) into heparinized collection tubes. Protein precipitation was performed and compound extracted in cold acetonitrile and analyzed by MS. Nonwinlin was used for PK modeling as needed.

The test system of data set [2] is bleomycin-induced lung fibrosis. Kind of data set: Bleomycin-induced lung fibrosis model. It is filed as in vivo, mouse. The following applies: 10 mg/kg SID versus AM-152 (30 mg/kg BID) and pirfenidone (400 mg/kg BID). From the text:
These in vivo assays took 6-8 weeks to complete (including full histological analysis). Typical experiments consisted of groups of 6-8 animals treated with itraconazole (2-4 doses), 1 or 2 itraconazole analogues (2-4 doses), vehicle, and benchmark treatments (pirfenidone and AM-152). AM-152 (Amira Pharmaceuticals) is an LPA1 (Lysophosphatidic acid 1) receptor antagonist. This target has been described as relevant to exacerbation of IPF systems in a mouse bleomycin model (British Journal of Pharmacology (2010), 160, 1699-1713). AM-152 is an advanced compound on this target as has been previously described in more detail in WO 2012/078805 and was used as a positive control and comparator to the compound disclosed in this application.
Nine-week old B6 male mice (Taconic farms) were surgically implanted with osmotic pumps delivering 25 mg/kg bleomycin for seven days. 17 days after surgery mice were treated with drug for 2 weeks. Drug treatments were administered as described in study design (FIG. 14). Previously described anti-fibrotic drugs AM-152 and pirfenidone were used as positive control drugs. […] Stained lung sections were analyzed according to a modified Ashcroft scoring system (FIG. 16) and using an unbiased automated image analysis method. […] Total stained area was then determined by using the area measurement function within ImageJ.

Where [3] appears, read: 20 mg/kg in 0.5% MC/0.5% TW80 suspension vehicle.
Setting [4] is: 20 mg/kg in 45% cyclodextrin with water.

Turning to `CCC(C)n1ncn(-c2ccc(N3CCN(c4ccc(OC[C@@H]5CO[C@@](Cc6ccnnc6)(c6ccc(Cl)cc6Cl)O5)cc4)CC3)cc2)c1=O` (stereo partly shown) [Compound 22], at PXR, the fold induction was around 1.1. Further, the values for the Cmax in data set [1] (setting [3]) and in data set [1] (setting [4]) were 170 nM and 1710 nM, respectively. The figures for the AUC(0-t) in data set [1] (setting [3]) and in data set [1] (setting [4]) were 2.21 µM·h and 8.08 µM·h, respectively.

Turning to `CCC(C)n1ncn(-c2ccc(N3CCN(c4ccc(OC[C@@H]5CO[C@@](Cn6nccn6)(c6ccc(Cl)cc6Cl)O5)cc4)CC3)cc2)c1=O` (stereo partly shown) [Compound 15], the fold induction at PXR is around 1.

On to `CCC(C)n1ncn(-c2ccc(N3CCN(c4ccc(OC[C@@H]5CO[C@@](Cn6nccn6)(c6ccccc6)O5)cc4)CC3)cc2)c1=O` (stereo partly shown) [Compound 42], for which the fold induction at PXR was around 1.5. For the same compound, in data set [1] (setting [4]), the Cmax stood at 3160 nM and the AUC(0-t) came to 42.7 µM·h. Besides, in data set [2], the “Lung fibrosis disease severity compared to control compounds” value is “decreased lung fibrosis disease severity with efficacy that was as good or better”.

Source of the values: patent US9981956B2, “Small molecule inhibitors of fibrosis” (THE CALIFORNIA INSTITUTE FOR BIOMEDICAL RESEARCH, priority 2013, dated 2018).
